Data as given in PubChem BioAssay AID588774 (The Scripps Research Institute Molecular Screening Center, 2011).
The source made the active and inactive calls.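 How the source made its calls: active means target enzyme inhibited at least 50% at a set dose, and selective over every off-target enzyme by a set factor; inactive means weaker inhibition or too little selectivity.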

Key:
[1] = tested on: MW 30 kDa; assay: pPAFAH inhibition and serine hydrolase selectivity, SAR follow-up, selectivity assay for pPAFAH inhibitor project, biochemical, gel-based, FP-Rh fluorescence, complex proteome, SAR compounds (AID 588774); details: gel-based competitive ABPP, stronger effect = higher value;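 on inhibition: 0% = DMSO-only band intensity and 100% = blank gel background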
[2] = as above; details: gel-based competitive ABPP, at 10 µM
[3] = tested on: MW 32 kDa; assay: as above; details: gel-based competitive ABPP, at 1 µM, stronger effect = higher value
[4] = tested on: ABHD3; assay: as above; details: gel-based competitive ABPP, stronger effect = higher value
[5] = tested on: LYPLA2; assay: as above; details: gel-based competitive ABPP, stronger effect = higher value
[6] = tested on: FAAH; assay: as above; details: gel-based competitive ABPP, stronger effect = higher value
[7] = biological target: Monoglyceride lipase (Mus musculus) (UniProt O35678); assay: as above; details: gel-based competitive ABPP, MAGL, stronger effect = higher value
Monoglyceride lipase (Mus musculus), sequence (O35678 whole entry, looked up): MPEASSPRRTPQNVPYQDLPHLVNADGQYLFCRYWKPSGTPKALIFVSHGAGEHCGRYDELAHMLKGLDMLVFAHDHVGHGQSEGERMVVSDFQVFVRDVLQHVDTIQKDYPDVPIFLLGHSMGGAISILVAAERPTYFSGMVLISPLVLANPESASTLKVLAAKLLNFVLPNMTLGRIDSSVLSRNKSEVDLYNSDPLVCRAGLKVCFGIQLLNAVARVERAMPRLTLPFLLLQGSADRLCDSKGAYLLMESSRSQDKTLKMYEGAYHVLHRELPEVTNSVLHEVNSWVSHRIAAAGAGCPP

[8] = tested on: ABHD6; assay: as above; details: gel-based competitive ABPP, stronger effect = higher value
[9] = biological target: ABHD4 (UniProt Q8VD66); assay: as above; details: gel-based competitive ABPP, stronger effect = higher value
ABHD4, sequence (Q8VD66 whole entry, looked up): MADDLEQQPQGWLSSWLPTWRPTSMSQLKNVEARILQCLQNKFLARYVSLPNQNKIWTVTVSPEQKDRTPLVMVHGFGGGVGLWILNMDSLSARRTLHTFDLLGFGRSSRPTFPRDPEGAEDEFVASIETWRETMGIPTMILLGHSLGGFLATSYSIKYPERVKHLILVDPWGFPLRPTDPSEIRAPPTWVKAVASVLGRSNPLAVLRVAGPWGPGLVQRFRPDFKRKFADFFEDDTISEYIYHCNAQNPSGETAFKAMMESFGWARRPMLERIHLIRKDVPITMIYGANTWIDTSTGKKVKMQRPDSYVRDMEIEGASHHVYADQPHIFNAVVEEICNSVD

[10] = tested on: pPAFAH; assay: as above; details: gel-based competitive ABPP, anti-targets inhibited, at 10 µM
[11] = biological target: Platelet-activating factor acetylhydrolase (Mus musculus) (UniProt Q60963); assay: as above; details: gel-based competitive ABPP, pPAFAH, stronger effect = higher value
Platelet-activating factor acetylhydrolase (Mus musculus), sequence (Q60963 whole entry, looked up): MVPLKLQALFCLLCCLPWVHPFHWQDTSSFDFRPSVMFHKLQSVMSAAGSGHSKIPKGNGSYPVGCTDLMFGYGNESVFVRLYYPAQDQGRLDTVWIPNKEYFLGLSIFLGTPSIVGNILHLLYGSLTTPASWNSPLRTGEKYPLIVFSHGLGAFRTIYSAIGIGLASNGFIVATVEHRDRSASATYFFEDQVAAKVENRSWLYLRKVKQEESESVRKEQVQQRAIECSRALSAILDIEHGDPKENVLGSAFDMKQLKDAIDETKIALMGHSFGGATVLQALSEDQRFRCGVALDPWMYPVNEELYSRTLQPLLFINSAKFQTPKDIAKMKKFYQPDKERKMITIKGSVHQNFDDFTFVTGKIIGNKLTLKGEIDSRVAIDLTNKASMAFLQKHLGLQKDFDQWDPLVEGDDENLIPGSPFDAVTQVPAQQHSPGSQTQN

[12] = tested on: LYPLA1; assay: as above; details: gel-based competitive ABPP, stronger effect = higher value

SMILES	inhibition ([1]; at 1 µM) [%]	anti-target count ([2]; ABHD3, anti-targets inhibited)	anti-target count ([2]; ABHD4, anti-targets inhibited)	anti-target count ([2]; ABHD6, anti-targets inhibited)	anti-target count ([2]; FAAH, anti-targets inhibited)	anti-target count ([2]; LYPLA1, anti-targets inhibited)	anti-target count ([2]; LYPLA2, anti-targets inhibited)	anti-target count ([2]; MAGL, anti-targets inhibited)	inhibition ([4]; at 10 µM)	inhibition ([5]; at 10 µM)	inhibition ([6]; at 10 µM)	inhibition ([6]; inhibition, at 0.1 µM) [%]	inhibition ([6]; inhibition, at 1 µM) [%]	inhibition ([7]; at 10 µM)	inhibition ([8]; at 10 µM)	inhibition ([8]; inhibition, at 1 µM) [%]	inhibition ([9]; at 10 µM)	anti-target count [10]	inhibition ([11]; at 10 µM) [%]	inhibition ([11]; inhibition, at 0.1 µM) [%]	further results
COc1ccc(-c2cnn(C(=O)N3CCN(c4cc(C)nc5ccccc45)CC3)n2)cc1	50	8	8	8	8	8	8	8	100% (inactive)	95% (inactive)	86%	60	83	45% (inactive)	70% (inactive)	58	100% (inactive)	8	96	85	inhibition [3]: 52%; inhibition ([4]; inhibition, at 1 µM): 86%; inhibition ([5]; inhibition, at 1 µM): 56%; inhibition ([7]; inhibition, at 1 µM): 35%; inhibition ([8]; inhibition, at 0.1 µM): 12%; inhibition ([9]; inhibition, at 1 µM): 86%; inhibition ([11]; inhibition, at 1 µM): 88%; inhibition ([12]; at 10 µM): 92% (inactive); inhibition ([12]; inhibition, at 0.1 µM): 4%; inhibition ([12]; inhibition, at 1 µM): 74%
Cc1cc(N2CCN(C(=O)n3ncc(-c4ccc(OC(F)(F)F)cc4)n3)CC2)c2ccccc2n1	44	9	9	9	9	9	9	9	100%	96% (inactive)	92% (inactive)	38	91	53% (inactive)	74% (inactive)	60	100%	9	100	100	inhibition [3]: 43%; inhibition ([4]; inhibition, at 0.1 µM): 75%; inhibition ([4]; inhibition, at 1 µM): 92%; inhibition ([5]; inhibition, at 1 µM): 39%; inhibition ([7]; inhibition, at 1 µM): 35%; inhibition ([8]; inhibition, at 0.1 µM): 22%; inhibition ([9]; inhibition, at 0.1 µM): 75%; inhibition ([9]; inhibition, at 1 µM): 92%; inhibition ([11]; inhibition, at 1 µM): 100%; inhibition ([12]; at 10 µM): 100% (inactive); inhibition ([12]; inhibition, at 1 µM): 51%
O=C(Oc1noc2cc(Cl)ccc12)N1CCOCC1	39	3	3	3	3	3	3	3	0% (inactive)	0% (inactive)	100%	85	94	26% (inactive)	66% (inactive)	46	0% (inactive)	3	100	96	inhibition ([1]; at 0.1 µM): 24%; inhibition ([8]; inhibition, at 0.1 µM): 27%; inhibition ([11]; inhibition, at 1 µM): 97%; inhibition ([12]; at 10 µM): 0% (inactive)
Cc1cc(N2CCN(C(=O)n3ncc(-c4ccc([N+](=O)[O-])cc4)n3)CC2)c2ccccc2n1	67	9	9	9	9	9	9	9	100% (inactive)	100% (inactive)	87% (inactive)	6	81	84% (inactive)	72% (inactive)	59	100% (inactive)	9	99	97	inhibition [3]: 59%; inhibition ([4]; inhibition, at 0.1 µM): 11%; inhibition ([4]; inhibition, at 1 µM): 94%; inhibition ([5]; inhibition, at 1 µM): 58%; inhibition ([7]; inhibition, at 0.1 µM): 28%; inhibition ([7]; inhibition, at 1 µM): 68%; inhibition ([8]; inhibition, at 0.1 µM): 17%; inhibition ([9]; inhibition, at 0.1 µM): 11%; inhibition ([9]; inhibition, at 1 µM): 94%; inhibition ([11]; inhibition, at 1 µM): 99%; inhibition ([12]; at 10 µM): 100% (inactive); inhibition ([12]; inhibition, at 0.1 µM): 5%; inhibition ([12]; inhibition, at 1 µM): 86%

Second part, led by results:

inhibition ([1]; at 1 µM) [%]	anti-target count ([2]; ABHD3, anti-targets inhibited)	anti-target count ([2]; ABHD4, anti-targets inhibited)	anti-target count ([2]; ABHD6, anti-targets inhibited)	anti-target count ([2]; FAAH, anti-targets inhibited)	anti-target count ([2]; LYPLA1, anti-targets inhibited)	anti-target count ([2]; LYPLA2, anti-targets inhibited)	anti-target count ([2]; MAGL, anti-targets inhibited)	inhibition ([4]; at 10 µM)	inhibition ([5]; at 10 µM)	inhibition ([6]; at 10 µM)	inhibition ([6]; inhibition, at 0.1 µM) [%]	inhibition ([6]; inhibition, at 1 µM) [%]	inhibition ([7]; at 10 µM)	inhibition ([8]; at 10 µM)	inhibition ([8]; inhibition, at 1 µM) [%]	inhibition ([9]; at 10 µM)	anti-target count [10]	inhibition ([11]; at 10 µM) [%]	inhibition ([11]; inhibition, at 0.1 µM) [%]	SMILES	further results
36	8	8	8	8	8	8	8	100%	61% (inactive)	88% (inactive)	29	74	40% (inactive)	61% (inactive)	43	100%	8	100	97	Cc1cc(N2CCN(C(=O)n3ncc(-c4ccc(Cl)c(Cl)c4)n3)CC2)c2ccccc2n1	inhibition [3]: 12%; inhibition ([4]; inhibition, at 0.1 µM): 69%; inhibition ([4]; inhibition, at 1 µM): 96%; inhibition ([5]; inhibition, at 1 µM): 18%; inhibition ([7]; inhibition, at 1 µM): 26%; inhibition ([8]; inhibition, at 0.1 µM): 13%; inhibition ([9]; inhibition, at 0.1 µM): 69%; inhibition ([9]; inhibition, at 1 µM): 96%; inhibition ([11]; inhibition, at 1 µM): 98%; inhibition ([12]; at 10 µM): 84% (inactive); inhibition ([12]; inhibition, at 1 µM): 24%
51	9	9	9	9	9	9	9	100% (inactive)	99% (inactive)	83%	63	82	58% (inactive)	71% (inactive)	54	100% (inactive)	9	99	99	Cc1cc(N2CCN(C(=O)n3ncc(-c4ccccc4)n3)CC2)c2ccccc2n1	inhibition [3]: 43%; inhibition ([4]; inhibition, at 1 µM): 85%; inhibition ([5]; inhibition, at 1 µM): 55%; inhibition ([7]; inhibition, at 1 µM): 36%; inhibition ([9]; inhibition, at 1 µM): 85%; inhibition ([11]; inhibition, at 1 µM): 99%; inhibition ([12]; at 10 µM): 96% (inactive); inhibition ([12]; inhibition, at 1 µM): 86%
